Experimental data published in patent publication US7557098B2, “1-aryl- or 1-alkylsulfonyl-heterocyclylbenzazoles as 5-hydroxytryptamine-6 ligands” (Wyeth, priority 2000, dated 2009).
Structures can show the parent of a compound that is named as a salt. Where two headings read alike, the source gives them in different places.

Key:
[1] = target: T1, human cloned 5-HT6 receptors (Homo sapiens, UniProt P50406); experiment: 5-HT6 binding affinity, [3H]-LSD displacement on membranes of Hela cells expressing human cloned 5-HT6 receptors
T1 construct: expressed in transfected cells; host or cells: Hela cells
T1 sequence (P50406 whole entry): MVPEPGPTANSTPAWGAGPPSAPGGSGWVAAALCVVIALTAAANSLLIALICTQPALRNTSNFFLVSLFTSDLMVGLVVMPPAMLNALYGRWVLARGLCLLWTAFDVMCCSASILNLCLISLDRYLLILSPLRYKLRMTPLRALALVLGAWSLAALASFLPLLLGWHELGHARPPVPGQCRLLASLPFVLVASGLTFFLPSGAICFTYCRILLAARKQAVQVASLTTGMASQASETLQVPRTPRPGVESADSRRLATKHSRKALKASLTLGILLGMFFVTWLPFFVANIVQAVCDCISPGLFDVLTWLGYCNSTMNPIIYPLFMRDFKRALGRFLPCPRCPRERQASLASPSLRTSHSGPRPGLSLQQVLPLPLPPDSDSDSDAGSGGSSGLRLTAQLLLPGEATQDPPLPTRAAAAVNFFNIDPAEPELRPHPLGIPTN

[2] = [3H]-LSD 3.0 nM, Hela cell membranes, 120 min at room temperature, read-out: 5-HT6 binding Ki

Compound	Ki [1, 2] [nM]	melting point [°C]	Ki [1] [nM]
O=S(=O)(c1ccccc1Br)n1ccc2c(N3CCNCC3)cccc21 [Example 2]	–	–	2
COc1ccc(S(=O)(=O)n2ccc3c(N4CCN(Cc5cccc([N+](=O)[O-])c5)CC4)cccc32)cc1OC [Example 33]	45	–	–
O=S(=O)(c1ccc(OC(F)(F)F)cc1)n1ncc2c(N3CCN(Cc4ccccc4)CC3)cccc21 [Example 70]	251	229 to 231	–
Nc1ccc(S(=O)(=O)n2ccc3c(N4CCNCC4)cccc32)cc1 [Example 5]	–	–	1
O=S(=O)(c1ccc2ccccc2c1)n1ncc2ccc(N3CCNCC3)cc21 [Example 96]	37	–	–
CCCCOc1ccc(S(=O)(=O)n2ccc3cc(N4CCNCC4)ccc32)cc1 [Example 83]	38	–	–
O=S(=O)(c1cc(Cl)c(Cl)s1)n1ncc2c(N3CCN(Cc4ccccc4)CC3)cccc21 [Example 71]	81	235 to 237	–
Cc1ccc(S(=O)(=O)n2ncc3c(N4CCN(Cc5ccccc5)CC4)cccc32)cc1 [Example 72]	56	215 to 217	–
CC(=O)N1CCN(c2cccc3c2ccn3S(=O)(=O)c2c(Cl)nc3sccn23)CC1 [Example 30]	220	–	–
O=S(=O)(c1ccc(F)cc1)n1ncc2c(N3CCN(Cc4ccccc4)CC3)cccc21 [Example 66]	84	240 to 241	–
Nc1ccc(S(=O)(=O)n2ccc3cc(N4CCNCC4)ccc32)cc1 [Example 73, 1-(4-Aminophenylsulfonyl)-5-piperazin-1-yl-1H-indole hydrochloride]	34	–	–
Nc1ccc(S(=O)(=O)n2ccc3c(N4CCN(Cc5ccc(Cl)s5)CC4)cccc32)cc1 [Example 37]	59	–	–
O=S(=O)(c1ccccc1)n1ncc2c(N3CCNCC3)cccc21 [Example 58, 1-(Phenylsulfonyl)-4-(1-piperazinyl)-1H-indazole hydrochloride]	–	–	0.3
O=S(=O)(c1c(Cl)nc2sccn12)n1ccc2c(N3CCNCC3)cccc21 [Example 3]	–	–	1
COc1ccc(S(=O)(=O)n2ncc3c(N4CCN(Cc5ccccc5)CC4)cccc32)cc1 [Example 69]	116	206 to 209	–
O=S(=O)(c1ccccc1)n1ncc2c(N3CCN(CCOc4ccc(F)cc4)CC3)cccc21 [Example 60]	306	184 to 186	–
O=S(=O)(C=Cc1ccccc1)n1ncc2c(N3CCN(Cc4ccccc4)CC3)cccc21 [Example 65]	172	233 to 235	–
O=S(=O)(c1ccccc1)n1ccc2c(N3CCN(C4=NCCN4)CC3)cccc21 [Example 14, 4-[4-(4,5-Dihydro-1H-imidazol-2-yl)-piperazin-1-yl]-1-(phenylsulfonyl)-1H-indole]	–	–	24
Cc1nn(C)c(Cl)c1S(=O)(=O)n1ccc2cc(N3CCNCC3)ccc21 [Example 86]	44	–	–
O=S(=O)(c1ccc(Br)s1)n1ncc2cc(N3CCNCC3)ccc21 [Example 81]	–	–	44
O=S(=O)(c1ccc(Cl)cc1)n1ncc2c(N3CCN(Cc4ccccc4)CC3)cccc21 [Example 67]	87	238 to 239	–
O=S(=O)(c1c(Cl)nc2sccn12)n1ccc2c(N3CCN(Cc4ccccc4)CC3)cccc21 [Example 27]	56	–	–

More lines, main results first:

Ki [1, 2] [nM]	melting point [°C]	Compound	Ki [1] [nM]
6	–	O=S(=O)(c1cc(Cl)c(Cl)s1)n1ncc2ccc(N3CCNCC3)cc21 [Example 91]	–
14	–	COc1cccc(CN2CCN(c3cccc4c3ccn4S(=O)(=O)c3ccc(OC)c(OC)c3)CC2)c1 [Example 48]	–
3	–	O=C(CCCN1CCN(c2cccc3c2cnn3S(=O)(=O)c2ccccc2)CC1)c1ccc(F)cc1 [Example 61]	–
7	–	O=S(=O)(c1ccccc1Br)n1ccc2c(N3CCN(Cc4ccncc4)CC3)cccc21 [Example 43]	–
15	–	Nc1ccc(S(=O)(=O)n2ccc3c(N4CCN(Cc5ccccc5)CC4)cccc32)cc1 [Example 35]	–
3	–	CN1CCN(c2cccc3c2ccn3S(=O)(=O)c2ccc(N)cc2)CC1 [Example 36]	–
6	–	O=S(=O)(c1c(Cl)nc2sccn12)n1ccc2c(N3CCN(Cc4cccnc4)CC3)cccc21 [Example 47]	–
1	–	O=S(=O)(c1ccccc1)n1ncc2c(N3CCN(CCc4ccccc4)CC3)cccc21 [Example 59, 4-[4-(2-phenylethyl)piperazin-1-yl]-1-(phenylsulfonyl)-1H-indazole hydrochloride]	–
4	–	O=S(=O)(c1ccccc1)n1ccc2c(N3CCN(Cc4ccncc4)CC3)cccc21 [Example 40]	–
4	–	Nc1ccc(S(=O)(=O)n2ccc3c(N4CCN(Cc5cccnc5)CC4)cccc32)cc1 [Example 53]	–
5	–	Nc1ccc(S(=O)(=O)n2ccc3c(N4CCN(Cc5cccc([N+](=O)[O-])c5)CC4)cccc32)cc1 [Example 38]	–
30	–	O=S(=O)(c1cc(Cl)c(Cl)s1)n1ncc2cc(N3CCNCC3)ccc21 [Example 90]	–
7	–	O=S(=O)(c1ccccc1)n1ccc2c(N3CCN(Cc4cccnc4)CC3)cccc21 [Example 41]	–
25	–	Nc1ccc(S(=O)(=O)n2ccc3c(N4CCN(Cc5ccncc5)CC4)cccc32)cc1 [Example 52]	–
1	–	O=S(=O)(c1ccccc1Br)n1ccc2c(N3CCN(Cc4cccnc4)CC3)cccc21 [Example 44]	–
2	258 to 260	CCCN1CCN(c2cccc3c2cnn3S(=O)(=O)c2ccccc2)CC1 [Example 64]	–
18	–	O=S(=O)(c1ccc(I)cc1)n1ncc2cc(N3CCNCC3)ccc21 [Example 101]	–
7	–	COc1cccc(CN2CCN(c3cccc4c3ccn4S(=O)(=O)c3ccc(N)cc3)CC2)c1 [Example 51]	–
4	–	COc1cccc(CN2CCN(c3cccc4c3ccn4S(=O)(=O)c3ccccc3Br)CC2)c1 [Example 42]	–
19	–	O=S(=O)(c1ccc(Br)cc1)n1ncc2cc(N3CCNCC3)ccc21 [Example 79]	–
12	202 to 205	O=C(CN1CCN(c2cccc3c2cnn3S(=O)(=O)c2ccccc2)CC1)c1ccccc1 [Example 62]	–
10	–	COc1ccc(S(=O)(=O)n2ccc3c(N4CCN(Cc5ccncc5)CC4)cccc32)cc1OC [Example 49]	–
17	–	COc1ccc(S(=O)(=O)n2ccc3c(N4CCN(Cc5cccnc5)CC4)cccc32)cc1OC [Example 50]	–
14	–	O=S(=O)(c1ccccc1)n1ncc2c(N3CCN(Cc4ccccc4)CC3)cccc21 [Example 57, 4-(4-Benzylpiperazin-1-yl)-1-(phenylsulfonyl)-1H-indazole hydrochloride]	–
24	–	Cc1c(S(=O)(=O)n2ncc3ccc(N4CCNCC4)cc32)sc2ccc(Cl)cc12 [Example 89]	–
6	–	Nc1ccc(S(=O)(=O)n2ccc3c(N4CCN(C5=NCCN5)CC4)cccc32)cc1 [Example 18]	–
5	–	O=S(=O)(c1c(Cl)nc2sccn12)n1ccc2c(N3CCN(Cc4ccncc4)CC3)cccc21 [Example 46]	–
6	188 to 190	O=S(=O)(c1ccccc1)n1ncc2c(N3CCN(CCCc4ccccc4)CC3)cccc21 [Example 63]	–
